{"source": "patent US11733243B2", "about": "“Use of acamprosate to modulate ERK1/2 activation in animal models for FXS and ASD and individuals diagnosed with FXS and ASD” (Indiana University Research and Technology Corporation, priority 2013, dated 2023)", "system": "youths with autistic disorder", "assay": "12-week single-blind placebo lead-in trial of acamprosate in youths with autistic disorder: behavioral outcome measures", "format": "in vivo, human", "procedure": "One study was a 12-week single-blind, placebo-controlled trial of acamprosate in 12 youths with autistic disorder was conducted. The primary outcome measured was the Clinical Global Impression Improvement (CGI-I) scale with several additional behavioral secondary outcome measures employed. In this study, secreted amyloid precursor protein (sAPP) was measured pre- and post acamprosate treatment as blood biomarker assay Result: Twelve subjects (mean age=10.4 yrs.) entered the study and nine subjects completed a two week placebo lead-in and entered active treatment (mean final dose=1,073 mg/day). Six of nine (67%) subjects receiving acamprosate were judged treatment responders with a CGI-I score of 1 “very much improved” or 2 “much improved”. […] Among secondary outcome measures analyzed, significant acamprosate-associated improvement was noted on measures of social behavior and hyperactivity. Acamprosate use was also associated with reductions in sAPP levels.\nThe first project enrolled 12 youth aged 5 to 17 years with fragile X syndrome and comorbid ASD in a 10-week open-label trial of acamprosate. The second project enrolled 12 youth aged 5 to 17 years diagnosed with idiopathic ASD in a 12-week single-blind placebo lead-in study of acamprosate. In both projects, concomitant dosing of psychotropic drugs remained stable throughout study. In each project, pre- and post-acamprosate treatment plasma levels of sAPP total and sAPPα were obtained. All APP assay samples were collected, chilled, and walked within 2 hours of blood draw to the lab for analysis. Plasma sAPP total and sAPPα were determined separately in serum using the ELISA kit obtained from Immuno Biological Laboratories (IBL, Gumma, Japan). The ELISA kit is validated to measure levels of sAPPα in human samples and able to detect as low as 0.09 ng/ml of sAPPα in a typical sample, with only 0.3% cross-reactivity to sAPP. Levels of sAPP total and sAPPα in plasma were reported in nanograms per milliliter (ng/mL). Statistical analyses of pre- and post-acamprosate sAPP total and sAPPα levels were conducted using paired T-tests. Finally an exploratory post-hoc analysis of potential correlation between percent change in sAPP total or sAPPα and percent change in scores on the Aberrant Behavior Checklist Social Withdrawal/Lethargy subscale (ABC-SW) was conducted. The ABC-SW measures social impairment which is a core symptom domain of ASD. Post-hoc analysis was done with Spearman correlation calculations. All data was analyzed in IBM SPSS Version 20.\nA 12-week single-blind, placebo-controlled trial of the effect of acamprosate in the treatment of 12 youths with autistic disorder aged 5 to 17 years was carried out. In order to pilot test use of acamprosate in youth with autism targeting core social impairment, was conducted. All subjects and their family members were blinded to treatment status. All subjects participated in a 2 week placebo-lead-in phase prior to 10 weeks of treatment with acamprosate. For this project, enteric coated commercially available 333 mg acamprosate pills were over-encapsulated and identical matching placebo manufactured for the project. Placebo-responders, defined by a Clinical Global Impressions Improvement scale (CGI-I) score of 1 “very much improved” or 2 “much improved” (ratings anchored to core social deficits) at week 2 were asked to exit the study. During active treatment with acamprosate, dosing was increased in 333 mg increments per week over the first six weeks of active treatment to a maximum dose of 1,332 mg/day (weight<5 60 kg) or 1,998 mg/day (weight>60 kg). During the final four weeks of active drug treatment, subjects were maintained on a stable highest tolerated (optimal) dose. The primary outcome measure was the clinician-rated CGI-I anchored to symptoms of social impairment. […]"}
{"smiles": "CC(=O)NCCCS(=O)(=O)O", "note": "[Acamprosate, 3-Acetamidopropane-1-sulfonic acid]", "values": [{"measurement": "treatment responders (CGI-I score of 1 or 2)", "setting": "idiopathic ASD, nine subjects receiving acamprosate, mean final dose 1,073 mg/day", "result": 67, "unit": "%"}, {"measurement": "mean CGI-I at last visit", "setting": "idiopathic ASD, nine subjects, last observation carried forward", "result": 2}, {"measurement": "CGI-S at endpoint", "setting": "idiopathic ASD, baseline 4.22+/-0.4, p=0.013", "result": "3.7+/−0.5"}, {"measurement": "ABC Lethargy/Social Withdrawal subscale (ABC-SW) at endpoint", "setting": "idiopathic ASD, baseline 14.1+/-8.5, p=0.019", "result": "10.0+/−8.4"}, {"measurement": "ABC Hyperactivity subscale at endpoint", "setting": "idiopathic ASD, baseline 25.4+/-12.6, p=0.005", "result": "16.6+/−12.4"}, {"measurement": "ADHD-RS at endpoint", "setting": "idiopathic ASD, baseline 29.5+/-10.4, p=0.002", "result": "20.75+/−9.7"}, {"measurement": "SRS total raw score at endpoint", "setting": "idiopathic ASD, baseline 107+/-28, p=0.002", "result": "91.4+/−30"}, {"measurement": "youth judged responders to acamprosate (of those treated)", "setting": "youth with idiopathic ASD", "result": "6 of 9"}]}
